The source of these data is US20250101041A1, “POSITIVE ALLOSTERIC MODULATORS OF THE MUSCARINIC ACETYLCHOLINE RECEPTOR M4” (Vanderbilt University, priority 2022, published 2025).

In the test the target is T1, human mAChR M4 (Homo sapiens, UniProt P08173).
T1 construct: expressed in transfected cells; host or cells: CHO-K1 (American Type Culture Collection), stably expressing hM4 and Gqi5
T1 sequence (P08173 1-479): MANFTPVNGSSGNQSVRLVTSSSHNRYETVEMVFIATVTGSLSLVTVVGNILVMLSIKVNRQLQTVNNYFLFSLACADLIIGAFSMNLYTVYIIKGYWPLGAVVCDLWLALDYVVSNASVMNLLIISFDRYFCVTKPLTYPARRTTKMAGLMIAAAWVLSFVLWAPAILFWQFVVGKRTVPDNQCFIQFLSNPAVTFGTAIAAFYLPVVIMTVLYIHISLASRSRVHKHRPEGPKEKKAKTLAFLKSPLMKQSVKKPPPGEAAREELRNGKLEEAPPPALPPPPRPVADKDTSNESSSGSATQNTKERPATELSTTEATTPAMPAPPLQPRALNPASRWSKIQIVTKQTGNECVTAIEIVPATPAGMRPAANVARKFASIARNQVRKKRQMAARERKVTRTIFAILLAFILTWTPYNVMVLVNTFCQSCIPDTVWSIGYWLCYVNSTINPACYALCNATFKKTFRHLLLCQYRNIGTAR
Kind of test: mAChR M4 cell-based functional assay: calcium mobilization (Fluo-4, FDSS), potentiation of EC20 acetylcholine response in hM4-Gqi5 CHO-K1 cells. To be noted: human M4; for Emax at 30 µM: CHO-K1, % ACh maximum at 30 μM; for EC50: potentiation of EC20 acetylcholine response, calcium mobilization. In a few lines: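 Readout is the fluorescence-ratio rise at 1 Hz on FDSS, with PAM activity taken as concentration-dependent enhancement of the EC20 acetylcholine response, fitted four-parameter for EC50/Emax. hM4-Gqi5 CHO-K1 cells carried Fluo-4 AM dye; test compounds (11 points, 1:3) preceded EC20 acetylcholine additions at 144 s and 230 s.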
(In general: Calcium flux is commonly read through the fluorescence of an indicator in the cells.)

In general, Emax refers to the maximal effect, on the per cent scale that the assay sets. What is called EC50 is the midpoint of the concentration-response curve.

For the molecule `Cc1cc(=O)n2nc(N3CCc4ncc(-c5ccc(N(C)C)nc5)cc4C3)c(C)cc2n1` [Compound 1-221, 7-(3-(6-(dimethylamino)pyridin-3-yl)-7,8-dihydro-1,6-naphthyridin-6(5H)-yl)-2,8-dimethyl-4H-pyrimido[1,2-b]pyridazin-4-one], the Emax at 30 µM was found to be 58% and the EC50 stood at 0.17 µM.
In the case of `Cc1c(N2CCc3ncc(C(F)(F)F)cc3C2)nn2c(=O)cc(C(F)F)nc2c1C` [Compound 1-40, 2-(difluoromethyl)-8,9-dimethyl-7-(3-(trifluoromethyl)-7,8-dihydro-1,6-naphthyridin-6(5H)-yl)-4H-pyrimido[1,2-b]pyridazin-4-one], the maximum response (Emax) at 30 µM turned out to be 93% and the EC50 was determined as 0.038 µM.
In the case of `Cc1cc(=O)n2nc(N3CCc4ncc(-c5cnc(F)cc5C)cc4C3)c(C)c(C)c2n1` [Compound 1-202, 7-(3-(6-fluoro-4-methylpyridin-3-yl)-7,8-dihydro-1,6-naphthyridin-6(5H)-yl)-2,8,9-trimethyl-4H-pyrimido[1,2-b]pyridazin-4-one], the Emax at 30 µM is 91% and the EC50 is 0.104 µM.
On the same counts, the results for `Cc1cc(Cl)ncc1-c1cnc2c(c1)CN(c1nn3c(=O)ccnc3cc1C)CC2` [Compound 1-333, 7-(3-(6-chloro-4-methylpyridin-3-yl)-7,8-dihydro-1,6-naphthyridin-6(5H)-yl)-8-methyl-4H-pyrimido[1,2-b]pyridazin-4-one] are 69% and 0.247 µM.
For `Cc1cc(=O)n2nc(N3CCc4ncc(-c5ccc(C)o5)cc4C3)c(C)cc2n1` [Compound 1-302, 2,8-dimethyl-7-(3-(5-methylfuran-2-yl)-7,8-dihydro-1,6-naphthyridin-6(5H)-yl)-4H-pyrimido[1,2-b] pyridazin-4-one], the maximal response (Emax) at 30 µM is 85% and the EC50 turned out to be 0.188 µM.
The corresponding values for `Cc1cc(=O)n2nc(N3CCc4ncc(N5CC6CC5CO6)cc4C3)c(C)cc2n1` (stereo not drawn) [Compound 2-42, 7-(3-(2-oxa-5-azabicyclo[2.2.1]heptan-5-yl)-7,8-dihydro-1,6-naphthyridin-6(5H)-yl)-2,8-dimethyl-4H-pyrimido[1,2-b]pyridazin-4-one] are 77% and 0.85 µM.
On the same counts, the results for `Cc1cc2nccc(=O)n2nc1N1CCc2ncc(-c3ccsc3C#N)cc2C1` [Compound 1-410, 3-(6-(8-methyl-4-oxo-4H-pyrimido[1,2-b]pyridazin-7-yl)-5,6,7,8-tetrahydro-1,6-naphthyridin-3-yl)thiophene-2-carbonitrile] are 82% and 0.178 µM.
The corresponding values for `[2H]C1([2H])Cc2ncc(Nc3cccnc3C)cc2C([2H])([2H])N1c1nn2c(=O)ccnc2cc1C` [Compound 2-163, 8-methyl-7-(3-((2-methylpyridin-3-yl)amino)-7,8-dihydro-1,6-naphthyridin-6(5H)-yl-5,5,7,7-d4)-4H-pyrimido[1,2-b]pyridazin-4-one] are 79% and 0.388 µM.
Take `COCc1cc(=O)n2nc(N3CCc4ncc(-c5cnc(F)cc5C)cc4C3)c(C)c(C)c2n1` [Compound 1-229, 7-(3-(6-fluoro-4-methylpyridin-3-yl)-7,8-dihydro-1,6-naphthyridin-6(5H)-yl)-2-(methoxymethyl)-8,9-dimethyl-4H-pyrimido[1,2-b]pyridazin-4-one]: the Emax at 30 µM came to 90% and the EC50 is 0.048 µM.
The corresponding values for `Cc1cc(=O)n2nc(N3CCc4ncc(-c5cnn(C6COC6)c5)cc4C3)c(C)c(C)c2n1` [Compound 1-179, 2,8,9-trimethyl-7-(3-(1-(oxetan-3-yl)-1H-pyrazol-4-yl)-7,8-dihydro-1,6-naphthyridin-6(5H)-yl)-4H-pyrimido[1,2-b]pyridazin-4-one] are 85% and 0.805 µM.
On the same counts, the results for `Cc1cc(=O)n2nc(N3CCc4ncc(-c5ccccc5Cl)cc4C3)c(C)cc2n1` [Compound 1-256, 7-(3-(2-chlorophenyl)-7,8-dihydro-1,6-naphthyridin-6(5H)-yl)-2,8-dimethyl-4H-pyrimido[1,2-b]pyridazin-4-one] are 71% and 0.578 µM.
The corresponding values for `Cc1cc(=O)n2nc(N3CCc4ncc(N5CCC6(CC5)COC6)cc4C3)c(C)c(C)c2n1` [Compound 2-47, 7-(3-(2-oxa-7-azaspiro[3.5]nonan-7-yl)-7,8-dihydro-1,6-naphthyridin-6(5H)-yl)-2,8,9-trimethyl-4H-pyrimido[1,2-b]pyridazin-4-one] are 66% and 2.15 µM.
Regarding `Cc1cc(=O)n2nc(N3CCc4ncc(-c5ccc6nccn6c5)cc4C3)c(C)c(C)c2n1` [Compound 1-133, 7-(3-(imidazo[1,2-a]pyridin-6-yl)-7,8-dihydro-1,6-naphthyridin-6(5H)-yl)-2,8,9-trimethyl-4H-pyrimido[1,2-b]pyridazin-4-one], the Emax at 30 µM was determined as 79% and the EC50 was 0.556 µM.
For the molecule `Cc1cc2nc(C(=O)NCc3cncs3)cc(=O)n2nc1N1CCc2ncc(C(F)(F)F)cc2C1` [Compound 1-42, 8-methyl-4-oxo-N-(thiazol-5-ylmethyl)-7-(3-(trifluoromethyl)-7,8-dihydro-1,6-naphthyridin-6(5H)-yl)-4H-pyrimido[1,2-b]pyridazine-2-carboxamide], the Emax at 30 µM was 87% and the EC50 came to 0.2 µM.
Take `Cc1cc(=O)n2nc(N3CCc4ncc(-c5cnn(-c6ccccn6)c5)cc4C3)c(C)c(C)c2n1` [Compound 1-175, 2,8,9-trimethyl-7-(3-(1-(pyridin-2-yl)-1H-pyrazol-4-yl)-7,8-dihydro-1,6-naphthyridin-6(5H)-yl)-4H-pyrimido[1,2-b]pyridazin-4-one]: the maximum response (Emax) at 30 µM was 61% and the EC50 worked out at 4.66 µM.
On the same counts, the results for `Cc1cc(F)c(F)c(-c2cnc3c(c2)CN(c2nn4c(=O)ccnc4c(C)c2C)CC3)c1` [Compound 1-341, 7-(3-(2,3-difluoro-5-methylphenyl)-7,8-dihydro-1,6-naphthyridin-6(5H)-yl)-8,9-dimethyl-4H-pyrimido[1,2-b]pyridazin-4-one] are 75% and 0.673 µM.
With `Cc1cc(=O)n2nc(N3CCc4ncc(-c5c(C)nn(C)c5C)cc4C3)c(C)cc2n1` [Compound 1-218, 2,8-dimethyl-7-(3-(1,3,5-trimethyl-1H-pyrazol-4-yl)-7,8-dihydro-1,6-naphthyridin-6(5H)-yl)-4H-pyrimido[1,2-b] pyridazin-4-one], the Emax at 30 µM stood at 92% and the EC50 was found to be 0.793 µM.
The corresponding values for `COc1ccccc1-c1cnc2c(c1)CN(c1nn3c(=O)cc(C)nc3c(C)c1C)CC2` [Compound 1-250, 7-(3-(2-methoxyphenyl)-7,8-dihydro-1,6-naphthyridin-6(5H)-yl)-2,8,9-trimethyl-4H-pyrimido[1,2-b]pyridazin-4-one] are 79% and 1.01 µM.
Regarding `Cc1cc2ncc(Cl)c(=O)n2nc1N1CCc2ncc(-c3ccnn3C)cc2C1` [Compound 1-10, 3-chloro-8-methyl-7-(3-(1-methyl-1H-pyrazol-5-yl)-7,8-dihydro-1,6-naphthyridin-6(5H)-yl)-4H-pyrimido[1,2-b]pyridazin-4-one], the Emax at 30 µM stood at 86% and the EC50 stood at 0.162 µM.
On to `COc1ccncc1-c1cnc2c(c1)CN(c1nn3c(=O)cc(C)nc3cc1C)CC2` [Compound 1-295, 7-(3-(4-methoxypyridin-3-yl)-7,8-dihydro-1,6-naphthyridin-6(5H)-yl)-2,8-dimethyl-4H-pyrimido[1,2-b]pyridazin-4-one], for which the maximal response (Emax) at 30 µM was 96% and the EC50 was 0.089 µM.
On the same counts, the results for `Cc1c(N2CCc3ncc(-c4ccc(-n5ccnc5)nc4)cc3C2)nn2c(=O)ccnc2c1C` [Compound 1-98, 7-(3-(6-(1H-imidazol-1-yl)pyridin-3-yl)-7,8-dihydro-1,6-naphthyridin-6(5H)-yl)-8,9-dimethyl-4H-pyrimido[1,2-b]pyridazin-4-one] are 86% and 0.534 µM.
Consider `Cc1cc2nccc(=O)n2nc1N1CCc2ncc(N3CC(C)Oc4ccccc43)cc2C1` (stereo not drawn) [Compound 2-57, 8-methyl-7-(3-(2-methyl-2,3-dihydro-4H-benzo[b][1,4]oxazin-4-yl)-7,8-dihydro-1,6-naphthyridin-6(5H)-yl)-4H-pyrimido[1,2-b]pyridazin-4-one], for which the Emax at 30 µM came to 93% and the EC50 was found to be 0.02 µM.
Consider `Cc1cc(=O)n2nc(N3CCc4ncc(-c5cncc(Cl)c5)cc4C3)c(C)c(C)c2n1` [Compound 1-123, 7-(3-(5-chloropyridin-3-yl)-7,8-dihydro-1,6-naphthyridin-6(5H)-yl)-2,8,9-trimethyl-4H-pyrimido[1,2-b]pyridazin-4-one], for which the Emax at 30 µM was found to be 89% and the EC50 was determined as 0.858 µM.
Consider `Cc1cc(=O)n2nc(N3CCc4ncc(-c5cc(F)ccc5F)cc4C3)c(C)cc2n1` [Compound 1-236, 7-(3-(2,5-difluorophenyl)-7,8-dihydro-1,6-naphthyridin-6(5H)-yl)-2,8-dimethyl-4H-pyrimido[1,2-b]pyridazin-4-one], for which the Emax at 30 µM amounted to 87% and the EC50 turned out to be 1.6 µM.
